Key:
[1] = Thermal analysis (DSC) of the crystals; type: physicochemical; conditions: 25-300° C., 20° C./min, dry nitrogen gas 50 mL/min
Experimental: For thermal analysis, the measurement was performed in a dry nitrogen gas stream (50 mL/min) from 25° C. to 300° C. at a temperature rise rate of 20° C./min.
For identification of the solvate form of the present invention, a powder X-ray diffraction apparatus (manufactured by Bruker) GADDS detector system and a thermal analysis equipment (manufactured by Mettler-Toledo) DSC822e system were used. The powder X-ray diffraction pattern was measured at room temperature using CuKα as a monochromator within the 2θ angle range of 1.5-41.5°. The thermal analysis was performed in a dry nitrogen gas stream (50 mL/min) from 25° C. to 300° C. at a temperature rise rate of 20° C./min.
Using the white solids obtained in Examples 1 and 2 as sample 1 (hydrochloride salt) and sample 2 (calcium salt), respectively, the thermal analysis was performed under the following conditions.
apparatus: DSC822e manufactured by Metter-Toledo temperature rise rate: 20° C./min atmosphere: dry nitrogen gas 50 mL/min measurement temperature: 25-300° C.
Using the solid obtained in Example 3 as sample 3 (2,2,2-[…] hydrate crystal), the thermal analysis was performed under the following conditions.

[2] = tested on: cardiomyocytes; conditions: cited from earlier work

| Molecule | crystal stability by thermal analysis [1] | no noticeable endothermic and exothermic peaks up to (temperature) [1] | excessive influx of calcium ions into cardiomyocytes [2] |
| --- | --- | --- | --- |
| Cc1ccc(N2CCNCC2)c(S(=O)(=O)O)c1.OCC(F)(F)F [Sample 3, 5-methyl-2-(piperazin-1-yl)benzenesulfonic acid 2,2,2-tetrafluoroethanolate] | stable | around 80 °C |  |
| Cc1ccc(N2CCNCC2)c(S(=O)(=O)O)c1 [compound A, 5-methyl-2-(piperazin-1-yl)benzenesulfonic acid] |  |  | remarkably suppresses |
| Cc1ccc(N2CCNCC2)c(S(=O)(=O)O)c1.Cl [sample 1, 5-methyl-2-(piperazin-1-yl)benzenesulfonic acid hydrochloride] | stable | 200 °C |  |
| Calcium 5-methyl-2-(piperazin-1-yl)benzenesulfonate [sample 2] | stable | 200 °C |  |
